Activity calls are given as the source filed them. No cut-off for these calls is given here.
System: L1210
Experiment: Antiproliferative activity against mouse L1210 cells assessed as growth inhibition at 50 uM
Assay type: functional

Structure (SMILES) | inhibition | inhibition at 50 µM [%]
C=C1O[C@@H](n2cnc3c(N)ncnc32)CC1O (single isomer, unassigned) | inactive | 
C=C1O[C@H](n2cnc3c(N)ncnc32)[C@@H](O)[C@@H]1O | inactive | 
C=C1O[C@H](n2cnc3c(N)ncnc32)[C@H](O)[C@H]1O | inactive | 
C=C1C[C@@H](O)[C@H](n2cnc3c(N)ncnc32)O1 |  | 50
C=C1O[C@@H](n2cnc3c(N)ncnc32)[C@H](O)[C@H]1O | inactive | 
